This note sets out measurements from ChEMBL document CHEMBL1144832, “An efficient one-pot synthesis of tethered cyclohexadiene enaminonitriles from methyl-ketones: an effective route to quinazolines” (Bioorg Med Chem Lett, 2008).

The test system of assay [1] is Saccharomyces cerevisiae. The assay can be described thus: Antimicrobial activity against Saccharomyces cerevisiae. It counts as functional.
In assay [2] the test system is Jurkat. As to the kind of experiment: Cytotoxicity against human Jurkat cells. It counts as functional, cell-based.
The subject of assay [3] is Bacillus subtilis. As to the kind of experiment: Antimicrobial activity against Bacillus subtilis. It counts as functional.
In assay [4] the test system is Escherichia coli. As to the kind of experiment: Antimicrobial activity against Escherichia coli. Type of assay: functional.
The test system of assay [5] is ScN2a. As to the kind of experiment: Cytotoxicity against mouse ScN2a cells. It counts as functional.

Structures are written as SMILES.

Broadly, the MIC is the smallest concentration in the dilution series that meets the test's criterion for growth inhibition. A higher MIC goes with a need for much substance. What is called CC50 is the concentration giving 50% cytotoxicity. High values mean lower toxicity to the cells, low ones greater toxicity to the cells. Turning to `CC1(c2ccc(F)cc2)CC(c2ccc(F)cc2)=CC(N)=C1C#N` (stereo unspecified), the MIC in assay [1] is ≥ 197 µM; in assay [3], ≥ 163 µM; in assay [4], ≥ 189 µM. In assay [2], this compound displayed a CC50 of 19.4 µM.

For `N#Cc1c(N)nc(Sc2ccc(Cl)cc2)c(C#N)c1-c1ccco1`, the Activity in assay [5] came to 19 µM.

As for `CC1(c2ccc(F)cc2)CC(c2ccc(F)cc2)=Cc2ncnc(N)c21` (stereo unspecified), the MIC was ≥ 197 µM in assay [1], ≥ 163 µM in assay [3] and ≥ 189 µM in assay [4]. Further, in assay [2], it took 3.24 µM to reach half-maximal cytotoxicity (CC50).

For `CC1=C(/C=C/C2=CC(N)=C(C#N)C(C)(/C=C/C3=C(C)CCCC3(C)C)C2)C(C)(C)CCC1` (stereo unspecified), the MIC in assay [1] was ≥ 197 µM; in assay [3], ≥ 163 µM; in assay [4], ≥ 189 µM. The same compound had a CC50 in assay [2] of 12.7 µM.

With `CC1(c2ccc3ccccc3c2)CC(c2ccc3ccccc3c2)=Cc2ncnc(N)c21` (stereo unspecified), the MIC was ≥ 197 µM in assay [1], ≥ 163 µM in assay [3] and ≥ 189 µM in assay [4]. This compound also displayed a CC50 in assay [2] of 9.37 µM.

As to `CC1(c2ccc(Br)s2)CC(c2ccc(Br)s2)=CC(N)=C1C#N` (stereo unspecified), the MIC in assay [1] was ≥ 197 µM; in assay [3] it was ≥ 163 µM; in assay [4] it was ≥ 189 µM. For the same compound, the CC50 in assay [2] was found to be 13.9 µM.

Regarding `CC1(c2ccc(Br)s2)CC(c2ccc(Br)s2)=Cc2ncnc(N)c21` (stereo unspecified), the MIC is ≥ 197 µM in assay [1], ≥ 163 µM in assay [3] and ≥ 189 µM in assay [4]. Also, half-maximal cytotoxicity in assay [2] (CC50) was put at 9.51 µM.

As to `CC1(c2cccs2)CC(c2cccs2)=CC(N)=C1C#N` (stereo unspecified), the MIC is ≥ 197 µM in assay [1], ≥ 163 µM in assay [3] and ≥ 189 µM in assay [4]. Also, the CC50 in assay [2] is 172 µM.

Regarding `CC1(c2ccccc2)CC(c2ccccc2)=CC(N)=C1C#N` (stereo unspecified), the MIC in assay [1] is ≥ 197 µM; in assay [3] it was ≥ 163 µM; in assay [4], ≥ 189 µM. In assay [2], this compound came in with a CC50 of 15.1 µM.

For the compound `CC1(c2cccs2)CC(c2cccs2)=Cc2ncnc(N)c21` (stereo unspecified), the MIC was ≥ 197 µM in assay [1], ≥ 163 µM in assay [3] and ≥ 189 µM in assay [4]. In assay [2], this compound had a CC50 of 15.4 µM.

Take `CC1(c2ccccc2)CC(c2ccccc2)=Cc2ncnc(N)c21` (stereo unspecified): the MIC is ≥ 197 µM in assay [1], ≥ 163 µM in assay [3] and ≥ 189 µM in assay [4]. Moreover, in assay [2], the CC50 amounted to 17.6 µM.

Turning to `CC1=C(/C=C/C2=Cc3ncnc(N)c3C(C)(/C=C/C3=C(C)CCCC3(C)C)C2)C(C)(C)CCC1` (stereo unspecified), the MIC in assay [1] was ≥ 197 µM; in assay [3], ≥ 163 µM; in assay [4], ≥ 189 µM. For the same compound, in assay [2], half-maximal cytotoxicity (CC50) was put at 12.8 µM.

Turning to `CCCCCCC1=Cc2ncnc(N)c2C(C)(CCCCCC)C1` (stereo unspecified), the MIC in assay [1] was ≥ 197 µM; in assay [3] it was ≥ 163 µM; in assay [4], ≥ 189 µM. This compound also displayed a CC50 in assay [2] of 12.6 µM.

`CCCCCCC1=CC(N)=C(C#N)C(C)(CCCCCC)C1` (stereo unspecified): the figures for the MIC in assay [1], in assay [3] and in assay [4] were ≥ 197 µM, ≥ 163 µM and ≥ 189 µM, respectively. In assay [2], it took 46.8 µM to reach half-maximal cytotoxicity (CC50).

For the compound `CC1(c2ccc(-c3ccccc3)cc2)CC(c2ccc(-c3ccccc3)cc2)=CC(N)=C1C#N` (stereo unspecified), the MIC in assay [1] is ≥ 197 µM; in assay [3], ≥ 163 µM; in assay [4], ≥ 189 µM. Also, the CC50 in assay [2] was 19.3 µM.

Consider `CC1(c2ccc(Br)cc2)CC(c2ccc(Br)cc2)=Cc2ncnc(N)c21` (stereo unspecified), for which the figures for the MIC in assay [1], in assay [3] and in assay [4] were ≥ 197 µM, ≥ 163 µM and ≥ 189 µM, respectively. Moreover, the CC50 in assay [2] stood at 12.7 µM.

In turn, `N#Cc1c(N)nc(Sc2ccccc2N)c(C#N)c1-c1ccco1` showed an Activity in assay [5] of 18 µM.

One may read the IC50 as the midpoint of a concentration-inhibition curve. A high value points to weaker potency in that assay. Regarding `CC1(c2ccc3ccccc3c2)CC(c2ccc3ccccc3c2)=CC(N)=C1C#N` (stereo unspecified), the values for the MIC in assay [1], in assay [3] and in assay [4] were ≥ 197 µM, ≥ 163 µM and ≥ 189 µM, respectively. In assay [2], this compound showed an IC50 of 19 µM.

In assay [5], `N#Cc1c(N)nc(Sc2ccc(Cl)cc2)c(C#N)c1-c1cccs1` had an Activity of 16 µM.

Regarding `CC1(c2ccc(Br)cc2)CC(c2ccc(Br)cc2)=CC(N)=C1C#N` (stereo unspecified), the MIC in assay [1] is ≥ 197 µM; in assay [3], ≥ 163 µM; in assay [4], ≥ 189 µM. The same compound registered a CC50 in assay [2] of 20.5 µM.

On to `CC1(c2ccc(-c3ccccc3)cc2)CC(c2ccc(-c3ccccc3)cc2)=Cc2ncnc(N)c21` (stereo unspecified), for which the MIC is ≥ 197 µM in assay [1], ≥ 163 µM in assay [3] and ≥ 189 µM in assay [4]. The same compound yielded a CC50 in assay [2] of 10.4 µM.

`N#Cc1c(N)nc(Sc2ccc(Cl)cc2)c(C#N)c1-c1ccccc1` returned an Activity in assay [5] of 35 µM.
